The record followed here is patent publication EP2583662A1, “Composition comprising a meroterpen to manage oily skin with tendency to develop acne” (priority 2011, dated 2013).

For assay [1], the system named is Propionibacterium acnes CIP A179. Description: Minimal inhibitory concentration (CMI) in solid medium against Propionibacterium acnes. The assay is classed as cell-based. As to conditions: single active; Wilkins-Chalgren agar, 18h at 37°C, anaerobic.
Experimental: La détermination de la CMI des actifs à évaluer vis-à-vis de Propionibacterium acnes consiste, dans un premier temps, à préparer une gamme comportant neuf dilutions des actifs à tester. Chaque dilution est ensuite déposée en boîte de Pétri puis recouverte de gélose Wilkins-Chalgren. Après homogénéisation puis solidification, chacune des boîtes est inoculée avec une suspension calibrée (10^7 UFC/mL) de P acnes (dépôt par strie), puis les boîtes sont incubées 18h à 37°C en anaérobiose. La souche utilisée est le Propionibacterium acnes CIP A179 (origine = glande sébacée (1946), source CRBIP, Institut Pasteur, Paris).
La préparation des géloses s'effectue à J1 en ajoutant 2 mL d'eau osmosée stérile dans une boîte de Pétri (témoin négatif) ou 2 ml de chaque dilution des gammes d'actifs 10 fois concentré et 18 mL de milieu gélosé. Après solidification à température ambiante, les boites sont séchées 30 min à 37°C puis ensemencées avec la suspension bactérienne calibrée (10^7 UFC/mL) à l'aide d'une ose calibrée de 10 µL permettant de réaliser un dépôt correspondant à environ 10^4 UFC).
La lecture des boites est effectuée après 18 heures de culture à 37°C permettant de déterminer la CMI correspondant à la plus faible concentration d'actif(s) qui inhibe toute culture visible de P acnes. La présence de 1 à 3 colonies n'est pas prise en considération.
Les produits évalués sont le S (Sytenol®A, Sytheon), Z (Zinc gluconate, Azelis), seuls et les associations S + M (mannitol, IMCD/SPCI) + G (extrait glycolique de Ginkgo biloba, Greentech) et S + M + G + Z.
Le Sytenol®A qui présente un caractère lipophile est dilué dans le DMSO (solution mère à 10%) avant d'être redilué dans l'eau osmosée. Le zinc, le mannitol et l'extrait de Ginkgo sont directement dilués dans l'eau osmosée.
Les essais ont également compris des contrôles en présence du solvant DMSO ayant servi à la solubilisation de S dans l'eau.
Assay [2] is described as follows: Protection of squalene against H2O2-induced oxidation (GC-MS assay of remaining squalene). To be noted: for Indice de protection (%): squalene + H2O2 for 1 hour. As to the method:
Le but de l'étude est d'évaluer les effets d'un méroterpène, en l'occurrence le Sytenol®A, sur l'oxydation du squalène induite par du peroxyde d'hydrogène (H2O2).
Le squalène (Sigma, St Quentin Fallavier) est mis en contact avec une quantité définie de peroxyde d'hydrogène pendant 1 heure pour induire son oxydation, en présence ou non du Sytenol®A à 0.1%, 0.25% ou 0.5% (P/V). Un contrôle est réalisé avec un anti-oxydant lipophile de référence, la vitamine E, testée à 0,16% (3,8 mM), correspondant à une concentration équimolaire de Sytenol®A à 0,1%.
A l'issue de l'oxydation, une étape d'extraction est réalisée, puis les échantillons sont analysés par chromatographie en phase gazeuse couplée à une analyse par spectrométrie de masse (GC-MS). Le squalène est dosé grâce à une gamme étalon (10 µg/ml à 2500 µg/ml). La quantité de squalène oxydée est déduite des dosages du squalène. Plus les quantités de squalène dosées sont importantes, moins il a été oxydé et inversement.

For `O=C(OOC(=O)c1ccccc1)c1ccccc1` [Peroxyde de Benzoyle, peroxyde de benzoyle], the CMI in assay [1] is recorded as 0.008%.
`C=C[C@@](C)(/C=C/c1ccc(O)cc1)CCC=C(C)C` [Sytenol®A, bakuchiol]: in assay [2] (equimolar concentration of 3,8 mM), the “fois plus efficace que la vitamine E en termes de protection de l'oxydation du squalène” value is given as 2 fois. Besides, the figures for the “Indice de protection (%)” value in assay [2] (tested at 0.1% (3.9mM)) and in assay [2] (tested at 0.25% (9.75 mM)) were 30.02% and 37.12%, respectively.
Zinc gluconate: the CMI in assay [1] turned out to be 0.12%.
On to vitamine E, for which, in assay [2] (tested at 0.16% (3.8mM)), the “Indice de protection (%)” value was 15.17%.
